Data on eight compounds can be found in PubChem BioAssay (NCI).

Among the test systems are HOP-92 NSCLC; IGROV1 ovarian; K-562 leukemia; LOX IMVI melanoma; NCI-H23 lung; OVCAR-5 ovarian; SK-MEL-2 melanoma; SK-OV-3 ovarian; TK-10 renal; UACC-62 melanoma.
Test in all cases: DTP human tumour cell line panel, 48 h

Several values for one entry are separate records, joined by “and”; a condition that tells them apart may be missing. Equal values may be shown once.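 Grown in 96-well plates, cells were treated for 48 hours with each compound at five concentrations. Insufficient inhibition: endpoint recorded as highest concentration tested. GI50 = concentration required for 50% inhibition of growth. TGI: total growth inhibition.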

As usually defined, the GI50 is the concentration that inhibits growth by half. By TGI is commonly meant the concentration at which net growth stops. The low end stands for more potent growth arrest, the high end for less potent growth arrest. With `CCOC(=O)[C@@H]1CSC(CC)=C(C(=O)O)N1`, the GI50 in the experiment on HOP-92 NSCLC, in the experiment on IGROV1 ovarian, in the experiment with K-562 leukemia, in the experiment with LOX IMVI melanoma, with NCI-H23 lung and with OVCAR-5 ovarian was over 100 µM each time. Further, the GI50 with SK-MEL-2 melanoma, in the experiment on SK-OV-3 ovarian, in the experiment with TK-10 renal and with UACC-62 melanoma was over 100 µM each time. Also, the TGI in the experiment on HOP-92 NSCLC, in the experiment with IGROV1 ovarian, in the experiment on K-562 leukemia, in the experiment on LOX IMVI melanoma, in the experiment with NCI-H23 lung and in the experiment with OVCAR-5 ovarian was over 100 µM each time. Further, the TGI in the experiment on SK-MEL-2 melanoma, in the experiment with SK-OV-3 ovarian, with TK-10 renal and in the experiment on UACC-62 melanoma was over 100 µM in each case.
As for `COc1cccc(-c2nc3sccn3c2-c2ccnc(NCCCNS(=O)(=O)c3ccccc3)c2)c1`, the GI50 with HOP-92 NSCLC was 0.885 µM; in the experiment on IGROV1 ovarian, 3.14 µM; in the experiment on K-562 leukemia it was 2.57 µM; in the experiment on LOX IMVI melanoma, 3.12 µM; in the experiment on NCI-H23 lung it was 2.99 µM; with OVCAR-5 ovarian it was 5.45 µM. Moreover, the GI50 with SK-MEL-2 melanoma is 2.87 µM; in the experiment with SK-OV-3 ovarian, 5.43 µM; in the experiment with TK-10 renal it was 4.27 µM; in the experiment with UACC-62 melanoma, 1.98 µM. The TGI with HOP-92 NSCLC, in the experiment on IGROV1 ovarian, in the experiment with K-562 leukemia, with LOX IMVI melanoma, in the experiment with NCI-H23 lung and with OVCAR-5 ovarian was over 100 µM throughout. Also, the TGI in the experiment on SK-MEL-2 melanoma was 8.85 µM; in the experiment on SK-OV-3 ovarian, over 100 µM; in the experiment with TK-10 renal, over 100 µM; in the experiment with UACC-62 melanoma, 5.08 µM.
With `C=CC(=O)Nc1cc2c(Nc3ccc(F)c(Cl)c3)ncnc2cc1C#CC(C)(C)N1CCN(C)CC1`, the GI50 in the experiment with HOP-92 NSCLC was 0.29 µM; with IGROV1 ovarian it was 0.175 µM; with K-562 leukemia it was 1.05 µM; in the experiment on LOX IMVI melanoma it was 1.27 µM; with NCI-H23 lung, 1.72 µM; in the experiment on OVCAR-5 ovarian, 1.04 µM. Moreover, the GI50 with SK-MEL-2 melanoma is 2.98 µM; with SK-OV-3 ovarian it was 0.953 µM; with TK-10 renal, 0.0522 µM; with UACC-62 melanoma it was 2.94 µM. The TGI in the experiment with HOP-92 NSCLC is 1.78 µM; in the experiment on IGROV1 ovarian it was 1.4 µM; in the experiment with K-562 leukemia, 6.59 µM; with LOX IMVI melanoma, 2.65 µM; in the experiment on NCI-H23 lung, 3.78 µM; in the experiment on OVCAR-5 ovarian, 6.17 µM. For the same compound, the TGI is 5.54 µM in the experiment with SK-MEL-2 melanoma, 4.59 µM with SK-OV-3 ovarian, 2.03 µM in the experiment on TK-10 renal and 5.58 µM in the experiment on UACC-62 melanoma.
As for `COc1ccccc1C(=O)N(Cc1ccccc1)c1ccc(Cl)c(C(=O)OC(C)C)c1`, the TGI is over 45.5 µM in the experiment with HOP-92 NSCLC; over 100 µM in the experiment with IGROV1 ovarian; over 100 µM with K-562 leukemia; over 100 µM with LOX IMVI melanoma; over 82.8 µM in the experiment with NCI-H23 lung; over 100 µM in the experiment with OVCAR-5 ovarian. The TGI in the experiment with SK-MEL-2 melanoma is 40.5 µM; with SK-OV-3 ovarian, over 91.7 µM; in the experiment with TK-10 renal it was over 100 µM; in the experiment with UACC-62 melanoma, over 100 µM.
As for `COc1ccccc1NC(=O)C1=C(C)NC(C)=C(C(=O)Nc2ccccc2OC)C1c1ccco1`, the TGI in the experiment on HOP-92 NSCLC was 24.2 µM; in the experiment with IGROV1 ovarian it was over 100 µM; in the experiment with K-562 leukemia, over 63.5 µM; in the experiment on LOX IMVI melanoma it was over 100 µM; in the experiment with NCI-H23 lung it was 32.4 µM; in the experiment on OVCAR-5 ovarian it was over 100 µM. Also, the TGI is 31.4 µM in the experiment on SK-MEL-2 melanoma, over 76.3 µM with SK-OV-3 ovarian, over 79.7 µM with TK-10 renal and 22.9 µM with UACC-62 melanoma.
As for `COc1cc(NC2CCCCC2O)c2nc(-c3ccc(Cl)cc3)ccc2c1` (stereo not drawn), the GI50 in the experiment on HOP-92 NSCLC is 18.7 µM; in the experiment with IGROV1 ovarian, 24.6 µM; in the experiment on K-562 leukemia, 2.82 µM; with LOX IMVI melanoma, 5.95 µM; in the experiment with NCI-H23 lung, 6.15 µM; in the experiment on OVCAR-5 ovarian, 19.1 µM. The GI50 with SK-MEL-2 melanoma was 12.5 µM; in the experiment with SK-OV-3 ovarian, 33.5 µM; in the experiment with TK-10 renal it was 14.6 µM; with UACC-62 melanoma, 11.1 µM. Besides, the TGI in the experiment with HOP-92 NSCLC was 88.3 µM; with IGROV1 ovarian, over 100 µM; in the experiment with K-562 leukemia, 18.4 µM; with LOX IMVI melanoma, 30.9 µM; in the experiment on NCI-H23 lung, 61.7 µM; with OVCAR-5 ovarian, over 100 µM. The TGI in the experiment on SK-MEL-2 melanoma was 59.3 µM; with SK-OV-3 ovarian, over 100 µM; in the experiment on TK-10 renal it was over 100 µM; with UACC-62 melanoma, 40.6 µM.
Regarding `COc1cc2c3cc1Oc1c(OC)c(OC)cc4c1C(Cc1ccc(O)c(c1)Oc1ccc(cc1)CC3N(C)CC2)N(C)CC4` (stereo not drawn), the GI50 was 17.2 µM in the experiment on HOP-92 NSCLC; 27.7 µM in the experiment on IGROV1 ovarian; 2.04 µM with K-562 leukemia; 3.68 µM in the experiment on LOX IMVI melanoma; 8.3 µM with OVCAR-5 ovarian; 20.2 µM with SK-MEL-2 melanoma. For the same compound, the GI50 was 36.9 µM in the experiment on SK-OV-3 ovarian and 20.8 µM with TK-10 renal. Besides, the concentration for total growth inhibition (TGI) in the experiment on HOP-92 NSCLC is 94.2 µM and 41.1 µM; with IGROV1 ovarian, over 100 µM; with K-562 leukemia it was > 100 µM and 12.9 µM; in the experiment with LOX IMVI melanoma, > 100 µM and 15.9 µM; in the experiment on NCI-H23 lung, 31.1 µM and > 100 µM; with OVCAR-5 ovarian it was > 100 µM and 62.4 µM. Moreover, the TGI with SK-MEL-2 melanoma is > 100 µM and 36.6 µM; in the experiment on SK-OV-3 ovarian, 91.2 µM and > 100 µM; in the experiment with TK-10 renal, > 100 µM and 39.3 µM; with UACC-62 melanoma, > 100 µM and 29.2 µM.
Consider `COc1ccc(C2NC(=S)NC3=C2CCOc2c3ccc3ccccc23)cc1` (stereo not drawn), for which the GI50 in the experiment on HOP-92 NSCLC was 77.1 µM; in the experiment on IGROV1 ovarian, over 100 µM; in the experiment on K-562 leukemia, 32.4 µM; in the experiment with LOX IMVI melanoma it was over 100 µM; with NCI-H23 lung, over 100 µM; with OVCAR-5 ovarian, over 100 µM. In addition, the GI50 with SK-MEL-2 melanoma was over 100 µM; in the experiment with SK-OV-3 ovarian, over 100 µM; in the experiment with TK-10 renal, over 100 µM; in the experiment with UACC-62 melanoma, 21.2 µM. Besides, the TGI in the experiment with HOP-92 NSCLC, in the experiment with IGROV1 ovarian, in the experiment with K-562 leukemia, in the experiment on LOX IMVI melanoma, in the experiment with NCI-H23 lung and in the experiment on OVCAR-5 ovarian was over 100 µM in each case. In addition, the TGI with SK-MEL-2 melanoma, in the experiment with SK-OV-3 ovarian, in the experiment on TK-10 renal and in the experiment with UACC-62 melanoma was over 100 µM each time.
